Like-named read-outs stand apart in the source and are kept apart here.
Molecular target: T1, purified recombinant human PARP (Homo sapiens, UniProt P09874)
T1 construct: purchased Trevigan (Gaithersburg, Md.)
Assay: PARP enzyme assay with [3H]NAD, scintillation counting
Format: biochemical
Procedure: The reaction is initiated by incubating the mixture at 25° C. After 15 minutes of incubation, the reaction is terminated by adding 500 microliters of ice cold 20% (w/v) trichloroacetic acid. The precipitate formed is transferred onto a glass fiber filter (Packard Unifilter-GF/B) and washed three times with ethanol. After the filter is dried, the radioactivity is determined by scintillation counting.
Using the PARP assay described above, approximate IC50 (μM) values were obtained as shown in the following Table III, which also include specific embodiments of the compounds of the present invention: […]

[1] = Table III, read-out: approximate IC50

T1 sequence (P09874 whole entry): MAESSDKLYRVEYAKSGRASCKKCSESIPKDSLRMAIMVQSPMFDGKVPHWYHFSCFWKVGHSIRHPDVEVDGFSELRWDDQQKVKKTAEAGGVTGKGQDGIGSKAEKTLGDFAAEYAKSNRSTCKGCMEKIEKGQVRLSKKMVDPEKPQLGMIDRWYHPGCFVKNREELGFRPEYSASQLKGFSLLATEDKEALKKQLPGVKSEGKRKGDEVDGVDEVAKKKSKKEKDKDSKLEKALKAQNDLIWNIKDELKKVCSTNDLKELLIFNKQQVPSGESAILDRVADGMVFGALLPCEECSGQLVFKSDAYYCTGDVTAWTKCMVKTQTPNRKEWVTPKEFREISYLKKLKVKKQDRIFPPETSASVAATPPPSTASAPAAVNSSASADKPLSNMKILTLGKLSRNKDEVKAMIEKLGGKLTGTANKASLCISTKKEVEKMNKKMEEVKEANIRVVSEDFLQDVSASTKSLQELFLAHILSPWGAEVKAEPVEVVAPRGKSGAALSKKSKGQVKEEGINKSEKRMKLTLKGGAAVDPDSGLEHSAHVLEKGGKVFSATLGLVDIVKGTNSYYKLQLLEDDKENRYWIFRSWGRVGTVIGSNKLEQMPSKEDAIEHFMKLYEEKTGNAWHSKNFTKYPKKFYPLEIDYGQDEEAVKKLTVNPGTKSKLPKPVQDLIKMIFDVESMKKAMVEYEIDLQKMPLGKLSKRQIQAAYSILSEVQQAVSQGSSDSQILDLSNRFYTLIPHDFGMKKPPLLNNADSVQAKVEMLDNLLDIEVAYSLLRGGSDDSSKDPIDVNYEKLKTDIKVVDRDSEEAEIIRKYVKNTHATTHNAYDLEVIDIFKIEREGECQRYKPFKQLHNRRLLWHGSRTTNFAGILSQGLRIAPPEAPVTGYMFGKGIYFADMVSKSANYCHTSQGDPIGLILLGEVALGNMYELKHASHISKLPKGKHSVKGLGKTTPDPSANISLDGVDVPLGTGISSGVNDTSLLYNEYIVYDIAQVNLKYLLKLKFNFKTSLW

Structure (SMILES) | IC50 [1] | IC50 (examples table, read-out: IC50)
CCOC(=O)C1CCCN(S(=O)(=O)c2ccc3[nH]c(=O)c4cccc5c4c3c2C5)C1 (stereo not shown) [Example 2, 1-(5-Oxo-5,9-dihydro-4H-cyclopenta[lmn]phenanthridine-1-sulfonyl)-piperidine-3-carboxylic acid ethyl ester] | 137 nM | 137 nM
O=c1[nH]c2ccc(S(=O)(=O)N3CCN(CC4CCCO4)CC3)c3c2c2c(cccc12)C3 (stereo not shown) [Example 3] | 247 nM | 247 nM
O=c1[nH]c2ccc(S(=O)(=O)NCCCc3ccccc3)c3c2c2c(cccc12)C3 [Example 4] | 1130 nM | 1130 nM
O=c1[nH]c2ccc(S(=O)(=O)NCCN3CCCC3)c3c2c2c(cccc12)C3 [Example 5] | 89 nM | 89 nM
O=c1[nH]c2ccc(S(=O)(=O)NCCCN3CCOCC3)c3c2c2c(cccc12)C3 [Example 6] | 63 nM | 63 nM
O=c1[nH]c2ccc(S(=O)(=O)N3CCN(c4ccc(C(F)(F)F)cc4)CC3)c3c2c2c(cccc12)C3 [Example 7] | 269 nM | 269 nM
O=c1[nH]c2ccc(S(=O)(=O)N3CCN(c4ccc(F)cc4)CC3)c3c2c2c(cccc12)C3 [Example 8] | 335 nM | 335 nM
O=c1[nH]c2ccc(S(=O)(=O)N3CCN(c4ccc(F)cc4F)CC3)c3c2c2c(cccc12)C3 [Example 9] | 211 nM | 211 nM
CN1CCN(NS(=O)(=O)c2ccc3[nH]c(=O)c4cccc5c4c3c2C5)CC1 [Example 10] | 129 nM | 129 nM
O=C(CNCCN1CCCC1)Nc1ccc2[nH]c(=O)c3cccc4c3c2c1C4 [Example 11] | 49 nM | 49 nM
CN1CCN(CCCNS(=O)(=O)c2ccc3[nH]c(=O)c4cccc5c4c3c2C5)CC1 [Example 12] | 64 nM | 64 nM
CCN(CC)CCNS(=O)(=O)c1ccc2[nH]c(=O)c3cccc4c3c2c1C4 [Example 13] | 48 nM | 48 nM
CCN(CC)CCCNS(=O)(=O)c1ccc2[nH]c(=O)c3cccc4c3c2c1C4 [Example 14] | 91 nM | 91 nM
O=c1[nH]c2ccc(S(=O)(=O)NCCc3ccccn3)c3c2c2c(cccc12)C3 [Example 15] | 114 nM | 114 nM
O=c1[nH]c2ccc(S(=O)(=O)NN3CCOCC3)c3c2c2c(cccc12)C3 [Example 16] | 92 nM | 92 nM
CN(C)CCN(C)S(=O)(=O)c1ccc2[nH]c(=O)c3cccc4c3c2c1C4 [Example 17] | 154 nM | 154 nM
CN(C)CCCN(C)S(=O)(=O)c1ccc2[nH]c(=O)c3cccc4c3c2c1C4 [Example 18] | 110 nM | 110 nM
CN1CCN(CCCNS(=O)(=O)c2ccc3[nH]c(=O)c4cccc5c4c3c2C5)CC1 [Example 19] | 52 nM | 52 nM
CCN(CC)CCNS(=O)(=O)c1ccc2[nH]c(=O)c3cccc4c3c2c1C4 [Example 20] | 77 nM | 77 nM

Structure (SMILES) | IC50 [1] | IC50 (examples table, read-out: IC50)
CN(C)CCCN1CCN(S(=O)(=O)c2ccc3[nH]c(=O)c4cccc5c4c3c2C5)CC1 [Example 21] | 64 nM | 64 nM
O=c1[nH]c2ccc(S(=O)(=O)N3CCN(CCN4CCCC4)CC3)c3c2c2c(cccc12)C3 [Example 22] | 115 nM | 115 nM
CN1CCC(N2CCN(S(=O)(=O)c3ccc4[nH]c(=O)c5cccc6c5c4c3C6)CC2)CC1 [Example 23] | 166 nM | 166 nM
O=c1[nH]c2ccc(S(=O)(=O)N3CCN(c4ccncc4)CC3)c3c2c2c(cccc12)C3 [Example 24] | 929 nM | 929 nM
CN1CCC(CN2CCN(S(=O)(=O)c3ccc4[nH]c(=O)c5cccc6c5c4c3C6)CC2)CC1 [Example 25] | 165 nM | 165 nM
O=c1[nH]c2ccc(S(=O)(=O)N3CCN(CCN4CCCCC4)CC3)c3c2c2c(cccc12)C3 [Example 26] | 314 nM | 314 nM
O=c1[nH]c2ccc(S(=O)(=O)N3CCN(CCN4CCOCC4)CC3)c3c2c2c(cccc12)C3 [Example 27] | 634 nM | 634 nM
O=c1[nH]c2ccc(S(=O)(=O)N3CCN(Cc4ccncc4)CC3)c3c2c2c(cccc12)C3 [Example 28] | 406 nM | 406 nM
CN(C)CCCN1CCN(S(=O)(=O)c2ccc3[nH]c(=O)c4cccc5c4c3c2C5)CC1 [Example 29] | 109 nM | 109 nM
O=c1[nH]c2ccc(S(=O)(=O)N3CCN(CCN4CCCC4)CC3)c3c2c2c(cccc12)C3 [Example 30] | 264 nM | 264 nM
CN1CCN(CC(=O)Nc2ccc3[nH]c(=O)c4cccc5c4c3c2C5)CC1 [Example 31, 2-(4-Methyl-piperazin-1-yl)-N-(5-oxo-5,9-dihydro-4H-cyclopenta[lmn]phenanthridin-1-yl)-acetamide] | 45 nM | 45 nM
CC(=O)N1CCN(CC(=O)Nc2ccc3[nH]c(=O)c4cccc5c4c3c2C5)CC1 [Example 32, 2-(4-Acetyl-piperazin-1-yl)-N-(5-oxo-5,9-dihydro-4H-cyclopenta[lmn]phenanthridin-1-yl)-acetamide] | 36 nM | 36 nM
O=C(CN1CCN(Cc2ccccc2)CC1)Nc1ccc2[nH]c(=O)c3cccc4c3c2c1C4 [Example 33] | 218 nM | 218 nM
O=C(CN1CCOCC1)Nc1ccc2[nH]c(=O)c3cccc4c3c2c1C4 [Example 34] | 58 nM | 58 nM
O=C(CN1CCN(CC2CCCO2)CC1)Nc1ccc2[nH]c(=O)c3cccc4c3c2c1C4 (stereo not shown) [Example 35] | 193 nM | 193 nM
O=C(CNCCCc1ccccc1)Nc1ccc2[nH]c(=O)c3cccc4c3c2c1C4 [Example 36] | 188 nM | 188 nM
O=C(CNCCCN1CCOCC1)Nc1ccc2[nH]c(=O)c3cccc4c3c2c1C4 [Example 37] | 178 nM | 178 nM
O=C(CNCCN1CCCCC1)Nc1ccc2[nH]c(=O)c3cccc4c3c2c1C4 [Example 38] | 175 nM | 175 nM
O=C(CN1CCN(c2ccc(C(F)(F)F)cc2)CC1)Nc1ccc2[nH]c(=O)c3cccc4c3c2c1C4 [Example 39] | 219 nM | 219 nM

Structure (SMILES) | IC50 [1] | IC50 (examples table, read-out: IC50)
O=C(CN1CCN(c2ccc(F)cc2)CC1)Nc1ccc2[nH]c(=O)c3cccc4c3c2c1C4 [Example 40] | 230 nM | 230 nM
O=C(CN1CCN(c2ccc(F)cc2F)CC1)Nc1ccc2[nH]c(=O)c3cccc4c3c2c1C4 [Example 41] | 336 nM | 336 nM
O=C(CN1CCN(c2ccccn2)CC1)Nc1ccc2[nH]c(=O)c3cccc4c3c2c1C4 [Example 42] | 158 nM | 158 nM
O=C(CN1CCC(N2CCCC2)CC1)Nc1ccc2[nH]c(=O)c3cccc4c3c2c1C4 [Example 44] | 94 nM | 94 nM
CCN(CC)CCNCC(=O)Nc1ccc2[nH]c(=O)c3cccc4c3c2c1C4 [Example 45] | 133 nM | 133 nM
CCN(CC)CCCNCC(=O)Nc1ccc2[nH]c(=O)c3cccc4c3c2c1C4 [Example 46] | 118 nM | 118 nM
O=C(CNCCN1CCOCC1)Nc1ccc2[nH]c(=O)c3cccc4c3c2c1C4 [Example 47] | 457 nM | 457 nM
CN(C)CCCN(C)CC(=O)Nc1ccc2[nH]c(=O)c3cccc4c3c2c1C4 [Example 48] | 144 nM | 144 nM
CN(C)CCCN1CCN(CC(=O)Nc2ccc3[nH]c(=O)c4cccc5c4c3c2C5)CC1 [Example 49] | 72 nM | 72 nM
CN(C)CCN1CCN(CC(=O)Nc2ccc3[nH]c(=O)c4cccc5c4c3c2C5)CC1 [Example 50] | 115 nM | 115 nM
CN1CCCC(CN2CCN(CC(=O)Nc3ccc4[nH]c(=O)c5cccc6c5c4c3C6)CC2)C1 (stereo not shown) [Example 51] | 178 nM | 178 nM
CN1CCC(CN2CCN(CC(=O)Nc3ccc4[nH]c(=O)c5cccc6c5c4c3C6)CC2)CC1 [Example 52] | 96 nM | 96 nM
CN1CCC(N2CCN(CC(=O)Nc3ccc4[nH]c(=O)c5cccc6c5c4c3C6)CC2)CC1 [Example 53] | 119 nM | 119 nM
O=C(CN1CCN(Cc2ccncc2)CC1)Nc1ccc2[nH]c(=O)c3cccc4c3c2c1C4 [Example 54] | 267 nM | 267 nM
O=C(CN1CCN(CCN2CCOCC2)CC1)Nc1ccc2[nH]c(=O)c3cccc4c3c2c1C4 [Example 55] | 558 nM | 558 nM
O=C(CN1CCN(c2ccncc2)CC1)Nc1ccc2[nH]c(=O)c3cccc4c3c2c1C4 [Example 56] | 204 nM | 204 nM
CN(C)CCN(C)CC(=O)Nc1ccc2[nH]c(=O)c3cccc4c3c2c1C4 [Example 57] | 55 nM | 55 nM
O=C(CN1CCN(CCN2CCCC2)CC1)Nc1ccc2[nH]c(=O)c3cccc4c3c2c1C4 [Example 58] | 390 nM | 390 nM

Source: US7157452B2, “Substituted 4,9-dihydrocyclopenta{imn}phenanthridine-5-ones derivatives thereof and their uses” (MGI GP, Inc., priority 2001, dated 2007)
